According to US20210161857A1, “COMPOSITION AND METHOD FOR SUPPRESSING INCREASE IN BLOOD GLUCOSE LEVEL” (SUNTORY HOLDINGS LIMITED, priority 2018, published 2021):

Legend:
[1] = Glucose tolerance test after single intake of test substance; format: in vivo, Mice (C57BL/6J); details: single oral intake 30 or 60 mg/kg, 30 min before oral glucose 1 g/kg; vs control group, at any time
Description: Evaluation of Action of Isoxanthohumol to Suppress an Increase in Blood Glucose Level by Single Intake
The effect of single intake of isoxanthohumol on the increase in blood glucose level after glucose intake was examined by the following procedure.
Xanthohumol and isoxanthohumol were the standard samples (purity of 95% or higher) obtained in Preparation Example 1. The “Dosage” in the table, indicates the dosage (mg) of the test substance per kg body weight. A dosing solution containing a mixture of the test substance and a solvent was used to administer the test substance. The solvent was a 0.5 wt % sodium carboxymethylcellulose (CMC) aqueous solution. The volume of the dosing solution was 10 mL/kg A 50 wt % glucose aqueous solution was used for glucose intake.
(§1) Mice (C57BL/6J, male, 7 weeks of age, CLEA Japan, Inc.) were purchased, and they were quarantined and acclimatized for one week. […] The selected animals were divided into groups (n=9 in each group) in the group structure shown in Table, 1 by the stratified continuous randomization method based on body weight at the end of the acclimatization period.
After grouping, each group was oral administered with the test substance as described in Table 1. […] Soon after blood drawing, the blood glucose level was measured using Glutest Neo Sensor (Sanwa Kagaku Kenkyusho Co., Ltd.). […]

[2] = Glucose tolerance test after continuous intake (three weeks) in high-fat diet mouse model; format: in vivo, Mice (C57BL/6J); details: high fat diet mice, oral glucose 1 g/kg, vs high fat diet group
Description: Evaluation of Action of Isoxanthohumol to Suppress an Increase in Blood Glucose Level by Continuous Intake
The effect of continuous intake of isoxanthohumol on the increase in blood glucose level after glucose intake was studied by the following procedure using a high-fat diet mouse model.
In the table, “Regular diet” is control diet “D12450J” (Research Diets), and “60 kcal % High-fat diet” is very high-fat diet “D12492” (Research Diets); Xanthohumol and isoxanthohumol were the standard samples (purity of 95% or higher) obtained in Preparation Example 1. The “Dosage” in the table indicates the dosage (mg) of the test substance per day per kg body weight. As in Reference Example 1, a dosing solution containing a mixture of the test substance and a solvent (a 0.5 wt % CMC aqueous solution) was used to administer the test substance. The volume of the dosing solution was 10 ml/kg. The amount of the test substance and the volume of the solution were calculated based on the latest body weight on the administration day of the test substance. A 50 wt % glucose aqueous solution was used for glucose intake.
as §1, with “japan,” for “Japan,”, “(n=8” for “(n=9”, “Table 2” for “Table, 1”, “period. They were fed with free access to specific basic feed and water. The test substance was orally administered once a day for three weeks.” for “period.”
After fasting for six hours on the last administration day of the test substance, each group was subjected to oral glucose intake to an amount of 1 g per 1 kg body weight, and blood was drawn from the tail vein over time. Soon after blood drawing, the blood glucose level was measured using Glutest Neo Sensor (Sanwa Kagaku Kenkyusho Co., Ltd.).
Statistical processing was performed using Microsoft Office Excel 2003. A significant difference, was tested between the regular diet group and the high fat diet group by Student's t-test (significant level: 1% (p<0.01)). A significant difference was tested between the high fat diet group and each group excluding the regular diet group by Dunnett's multiple comparison test (significant level: 5% (p<0.05)).

[3] = high temperature of 100° C.; cited from earlier work
[4] = high-fat diet mouse model, cited from earlier work
[5] = 10 mg/L mixed in drinking water, long-term breeding, high-fat diet mouse model; cited from earlier work
[6] = test system: 3T3-L1 adipose cells; details: cited from earlier work
[7] = 30 mg/kg/day orally once a day for three weeks
[8] = 60 mg/kg/day orally once a day for three weeks

| Compound | action to suppress an increase in blood glucose level [1] | action to suppress an increase in blood glucose level [2, 7] | action to suppress an increase in blood glucose level [2, 8] | thermal stability [3] | fasting blood glucose level ([4]; continuous administration 60 mg/kg/day) | fasting blood insulin level ([4]; continuous administration 30 or 60 mg/kg/day) | blood glucose level [5] | secretion of adiponectin [6] |
| --- | --- | --- | --- | --- | --- | --- | --- | --- |
| COc1cc(O)c(CC=C(C)C)c2c1C(=O)CC(c1ccc(O)cc1)O2 (centres unmarked) [isoxanthohumol] | did not show a significant action to suppress an increase in blood glucose level | tendency for a suppressed increase in blood glucose level | significant action to suppress an increase in blood glucose level | stable | – | – | – | – |
| COc1cc(O)c(CC=C(C)C)c(O)c1C(=O)/C=C/c1ccc(O)cc1 [xanthohumol] | did not show a significant action to suppress an increase in blood glucose level | No significant action to suppress an increase in blood glucose level | No significant action to suppress an increase in blood glucose level | – | decreases the fasting blood glucose level | decreases the fasting blood insulin level | decrease in blood glucose level | promote secretion of adiponectin |
